Assay results reported in patent US12692253B2, “Antimicrobial compounds and methods” (Curza Global, LLC, priority 2019, dated 2026).

Key:
[1] = target: Rabbit Reticulocyte Lysate (eukaryotic protein synthesis); test: Rabbit reticulocyte lysate luciferase assay (inhibition of eukaryotic protein synthesis); format: biochemical; conditions: class by IC50 or % inhibition @ 1 μM, read-out: Rabbit reticulocyte IC50 (μM/% inhib.)
Experimental: Inhibition of eukaryotic protein synthesis was determined using the Rabbit Reticulocyte Lysate System, Nuclease-Treated from Promega (catalog #L-4960) with slight modifications to the manufacturer's protocol. Compounds were serial diluted in 0.5 mL microcentrifuge tubes by mixing and transferring 50 μL from the highest concentration to 50 μL of water, mixing and transferring 50 μL of this 2-fold dilution to 50 μL of water. This mixing and transferring was repeated so that there are a total of 8 tubes with serial dilutions of compound at 10× the desired screening concentration that are ultimately diluted to 1× by the addition of rabbit reticulocyte luciferase synthesis mixture. Serial dilutions of compounds were added (2.5 μL) to wells in a black round bottom 96-well plate. Water (2.5 μL) was used as a “no inhibitor” control in 4 wells/plate. No RNA control reaction mixture (2 μL; see below) was used as a control in 4 wells/plate for background luminescence. Rabbit reticulocyte luciferase synthesis mixture (22.5 μL; see below) was added to wells with compounds or water mixture and incubated at 30° C. for 90 minutes. Luciferase assay reagent (25 μL) was added with luminescence measured using a BioTek Synergy HTX plate reader. % Inhibition was determined relative to no inhibitor controls.
Rabbit Reticulocyte Luciferase Synthesis Mixture:
• 1,000 μL rabbit reticulocyte lysate • 5.7 μL Luciferase Control RNA (1 μg/μL) • 26 μL complete amino acid mixture • 395 μL water • No RNA Control • 70 μL rabbit reticulocyte lysate • 2 μL complete amino acid mixture • 28 μL water Minimum Inhibitory Concentration (MIC)

A. baumannn (Ab) = test: Broth microdilution minimum inhibitory concentration (MIC), CLSI; format: cell-based; conditions: for MIC: Acinetobacter baumannii, read-out: Ab + bicarb MIC; for Ab + bicarb MIC: A. baumannii, growth medium supplemented with sodium bicarbonate
Experimental: (§1) A certified BSL-2 laboratory was used for testing. Compounds were evaluated using the broth microdilution minimum inhibitory concentration (MIC) and minimum bactericidal concentration (MBC) assays defined by Clinical and Laboratory Standards Institute (CLSI) in the M26-A guideline against S. aureus (Sa), E. coli (Ec), K. pneumoniae (Kp), A. baumannn (Ab), E. faecalis (Ef) and P. aeruginosa (Pa).
(§2) MICs were determined using the Clinical Laboratory and Standards Institute (CLSI) Broth Microdilution Method with slight modification. Clinical and Laboratory Standards Institute (2012). “Methods for dilution antimicrobial susceptibility tests for bacteria that grow aerobically; approved standard, 9th ed. M07-A9 Clinical and Laboratory Standards Institute, Wayne, PA” Serial two-fold dilutions of compounds are prepared in sterile clear round-bottom 96-well plates.
(§3) To prepare microdilution trays, two-fold dilutions of antimicrobial agent are prepared in growth medium: Cation-Adjusted Mueller-Hinton Broth (CAMHB), or CAMHB supplemented with sodium bicarbonate (6.25 or 25 mM final concentration prepared from a 1.0M stock solution) or CAMHB supplemented with heat inactivated human serum (Fisher Cat. #BP2657100) 0-50% by adding 200 µL of the highest concentration to be tested (64 μg/mL, for example) in row A, mixing and transferring 100 μL from row A to 100 μL growth medium in row B, then repeating the mixing and transferring through row H of the 96-well plate, discarding the excess […] remaining. This slight modification to the CLSI protocol enables evaluation of MICs for 3 compounds per plate in triplicate, albeit with only 8 compound dilutions (CLSI protocol enables 2 compounds in triplicate with 10 dilutions). Bacterial suspensions are added to a final concentration of 5×10^4 CFU/well by adding 5 μL of a 1:10 dilution of a 0.5 McFarland suspension (1×10^8 CFU/mL) for each bacterium evaluated. Bacterial suspensions were prepared using the growth method described by CLSI. Well-isolated colonies (3-5 from an agar plate) were selected using a sterile loop and used to inoculate a tube containing 4 mL of CAMHB. The cultures are incubated at 35±2° C. until it achieves or exceeds the turbidity of the 0.5 McFarland standard, determined by measuring A600 (usually two to six hours). When growth exceeds a 0.5 McFarland standard, the turbidity is adjusted with broth to be equivalent to a 0.5 McFarland standard.

E. faecalis (Ef) = test: as above; format: cell-based; conditions: growth medium supplemented with sodium bicarbonate; for MIC: Enterococcus faecalis, read-out: Ef + bicarb MIC
Experimental: as §1, §2, §3

S. aureus (Sa) = test: as above; format: cell-based; conditions: growth medium supplemented with sodium bicarbonate; for MIC: Staphylococcus aureus, read-out: Sa + bicarb MIC
Experimental: as §1, §2, §3

E. coli (Ec) = test: as above; format: cell-based; conditions: growth medium supplemented with sodium bicarbonate; for MIC: Escherichia coli, read-out: E. coli + bicarb MIC
Experimental: as §1, §2, §3

P. aeruginosa (Pa) = test: as above; format: cell-based; conditions: growth medium supplemented with sodium bicarbonate; for MIC: Pseudomonas aeruginosa, read-out: Pa MIC + bicarb
Experimental: as §1, §2, §3

[2] = tested on: E. coli S30 extract (bacterial protein synthesis); test: E. coli S30 extract coupled transcription-translation luciferase assay (inhibition of bacterial protein synthesis); format: biochemical; conditions: class by IC50 or % inhibition @ 1 μM, read-out: S30 IC50 (μM/% inhib.)
Experimental: E. coli S30 extract: Inhibition of bacterial protein synthesis was determined using the E. coli S30 Extract System for Circular DNA (Promega catalog #L-2010) and Luciferase Assay Reagent (Promega catalog #E1500) with slight modifications to a published protocol. Fyfe, C., Sutcliffe, J. A. and Grossman, T. H. (2012) “Development and characterization of a Pseudomonas aeruginosa in vitro coupled transcription-translation assay system for evaluation of translation inhibitors” J. Microbiol. Methods 90(3), 256-261.
Compounds were serial diluted in 0.5 mL microcentrifuge tubes by mixing and transferring 50 μL from the highest concentration to 50 μL of water, mixing and transferring 50 μL of this 2-fold dilution to 50 μL of water. This mixing and transferring was repeated so that there are a total of 8 tubes with serial dilutions of compound at 10× the desired screening concentration that are ultimately diluted to 1× by the addition of S30 luciferase synthesis mixture. Serial dilutions of compounds were added (2 μL) to wells in a black round bottom 96-well plate. Water (2 μL) was used as a “no inhibitor” control in 4 wells/plate. No DNA control reaction mixture (20 μL; see below) was used as a control in 4 wells/plate for background luminescence. S30 luciferase synthesis mixture (18 μL; see below) was added to wells with compounds or water mixture and incubated at 37° C. for 1 hour. Reactions were stopped by transferring to 4° C. refrigerator for 5 minutes then 25 μL of luciferase activity mix was added. Luminescence was measured using a BioTek Synergy HTX plate reader. % Inhibition was determined relative to no inhibitor controls. • S30 luciferase synthesis mixture: • 445 μL S30 extract, circular • 712 μL S30 Premix without amino acids • 4.45 μL pBESTluc™ DNA (1 μg/μL) • 78 μL complete amino acid mixture • 267 μL water • No DNA control: • 20 μL S30 extract, circular • 32 μL S30 Premix without amino acids • 7 μL complete amino acid mixture • 21 μL water Rabbit Reticulocyte lysate

Compound | IC50 [1] | MIC (A. baumannn (Ab)) | MIC (E. faecalis (Ef)) | MIC (S. aureus (Sa)) | MIC (E. coli (Ec)) | MIC (P. aeruginosa (Pa)) | IC50 [2] | Ab + bicarb MIC (A. baumannn (Ab)) | Ef + bicarb MIC (E. faecalis (Ef)) | Sa + bicarb MIC (S. aureus (Sa)) | E. coli + bicarb MIC (E. coli (Ec)) | Pa MIC + bicarb (P. aeruginosa (Pa))
CC(C)(N)C(=O)N1CCN(C(=O)Nc2ccn(-c3ccc(CN4C[C@@H]5[C@@H](N)[C@@H]5C4)cc3)c(=O)n2)CC1 [Compound 3] | ≥ 1 µM | < 8 µg/mL | < 8 µg/mL | < 8 µg/mL | < 8 µg/mL | 8 to 32 µg/mL | < 0.5 µM | – | – | – | – | –
C[C@](N)(CO)C(=O)N1CCN(C(=O)Nc2ccn(-c3ccc(CN4C[C@@H]5[C@@H](N)[C@@H]5C4)cc3)c(=O)n2)CC1 [Compound 4] | ≥ 1 µM | > 32 µg/mL | < 8 µg/mL | – | < 8 µg/mL | > 32 µg/mL | < 0.5 µM | – | – | – | – | –
CC(C)(N)C(=O)N1CCN(C(=O)Nc2ccn(-c3ccc(CN4CCC5(N)CC5C4)cc3)c(=O)n2)CC1 (stereo not shown) [Compound 13] | ≥ 1 µM | > 32 µg/mL | < 8 µg/mL | < 8 µg/mL | < 8 µg/mL | > 32 µg/mL | 0.5 to 1 µM | – | – | – | – | –
CC(C)(N)C(=O)N1CCN(C(=O)Nc2ccn(-c3ccc(CN4C[C@@H]5[C@H](N)[C@@H]5C4)cc3)c(=O)n2)CC1 [Compound 14] | ≥ 1 µM | > 32 µg/mL | < 8 µg/mL | < 8 µg/mL | < 8 µg/mL | > 32 µg/mL | < 0.5 µM | – | – | – | – | –
CC(C)(N)C(=O)N1CCN(C(=O)Nc2ccn(-c3ccc(CN4CCC5(N)CC5C4)cc3)c(=O)n2)CC1 (stereo not shown) [Compound 20] | ≥ 1 µM | – | – | – | – | – | ≥ 1 µM | + (An MIC (μg/mL) value that is 32 μg/mL or greater) | ++ (An MIC value (μg/mL) that is 8 μg/mL or greater and less than 32 μg/mL) | +++ (An MIC value (μg/mL) that is less than 8 μg/mL) | +++ (An MIC value (μg/mL) that is less than 8 μg/mL) | + (An MIC (μg/mL) value that is 32 μg/mL or greater)
CC(C)(N)C(=O)N1CCN(C(=O)Nc2ccn(-c3ccc(CN4CCC5(N)CC5C4)cc3)c(=O)n2)CC1 (stereo not shown) [Compound 23] | ≥ 1 µM | – | – | – | – | – | < 0.5 µM | + (An MIC (μg/mL) value that is 32 μg/mL or greater) | +++ (An MIC value (μg/mL) that is less than 8 μg/mL) | +++ (An MIC value (μg/mL) that is less than 8 μg/mL) | +++ (An MIC value (μg/mL) that is less than 8 μg/mL) | + (An MIC (μg/mL) value that is 32 μg/mL or greater)
C[C@](N)(CO)C(=O)N1CCN(C(=O)Nc2ccn(-c3ccc(CN4C[C@@H]5[C@@H](N)[C@@H]5C4)c(Cl)c3)c(=O)n2)CC1 [Compound 25] | ≥ 1 µM | > 32 µg/mL | > 32 µg/mL | < 8 µg/mL | < 8 µg/mL | > 32 µg/mL | < 0.5 µM | – | – | – | – | –
CC(C)(N)C(=O)N1CCN(C(=O)Nc2ccn(-c3ccc(CN4C[C@@H]5[C@@H](N)[C@@H]5C4)cc3)c(=O)n2)C(c2ccccc2)C1 (stereo partly shown) [Compound 27] | ≥ 1 µM | – | – | 8 to 32 µg/mL | < 8 µg/mL | > 32 µg/mL | < 0.5 µM | – | – | – | – | –
C[C@@H]1CN(C(=O)C(C)(C)N)CCN1C(=O)Nc1ccn(-c2ccc(CN3C[C@@H]4[C@@H](N)[C@@H]4C3)cc2)c(=O)n1 [Compound 28] | ≥ 1 µM | > 32 µg/mL | < 8 µg/mL | < 8 µg/mL | < 8 µg/mL | > 32 µg/mL | < 0.5 µM | – | – | – | – | –
CC(C)(N)C(=O)N1CCN(C(=O)Nc2ccn(-c3ccc(CN4CC5CCC(C4)C5N)cc3)c(=O)n2)CC1 (stereo not shown) [Compound 29] | ≥ 1 µM | > 32 µg/mL | 8 to 32 µg/mL | < 8 µg/mL | < 8 µg/mL | > 32 µg/mL | 0.5 to 1 µM | – | – | – | – | –
CC(C)(N)C(=O)N1CCN(C(=O)Nc2ccn(-c3ccc(CN4CC[C@H]5[C@H](N)[C@H]5C4)cc3)c(=O)n2)CC1 [Compound 30] | ≥ 1 µM | 8 to 32 µg/mL | < 8 µg/mL | < 8 µg/mL | < 8 µg/mL | 8 to 32 µg/mL | < 0.5 µM | – | – | – | – | –
C[C@](N)(CO)C(=O)N1CCN(C(=O)Nc2ccn(-c3ccc(CN4CC5(CC(N)C5)C4)cc3)c(=O)n2)CC1 [Compound 36] | ≥ 1 µM | > 32 µg/mL | > 32 µg/mL | – | < 8 µg/mL | > 32 µg/mL | < 0.5 µM | – | – | – | – | –
CC(C)(N)C(=O)N1CCN(C(=O)Nc2ccn(-c3ccc(CN4CCC5(CCC5N)CC4)cc3)c(=O)n2)CC1 (stereo not shown) [Compound 38] | ≥ 1 µM | > 32 µg/mL | 8 to 32 µg/mL | – | – | – | < 0.5 µM | – | – | – | – | –
CC(C)(N)C(=O)N1CCN(C(=O)Nc2ccn(-c3ccc(CN4CC5(CNC5)C4)cc3)c(=O)n2)CC1 [Compound 46] | ≥ 1 µM | – | > 32 µg/mL | 8 to 32 µg/mL | < 8 µg/mL | > 32 µg/mL | < 0.5 µM | – | – | – | – | –
CC(C)(N)C(=O)N1CCN(C(=O)Nc2ccn(-c3ccc(CN4CC5(CCNCC5)C4)cc3)c(=O)n2)CC1 [Compound 81] | ≥ 1 µM | > 32 µg/mL | – | 8 to 32 µg/mL | < 8 µg/mL | > 32 µg/mL | < 0.5 µM | – | – | – | – | –
C[C@](N)(CO)C(=O)N1CCN(C(=O)Nc2ccn(-c3cccc(CCN4C[C@@H]5[C@@H](N)[C@@H]5C4)c3)c(=O)n2)CC1 [Compound 89] | – | – | – | > 32 µg/mL | 8 to 32 µg/mL | > 32 µg/mL | ≥ 1 µM | – | – | – | – | –
CC(C)(N)C(=O)N1CCN(C(=O)Nc2ccn(-c3ccc(CCN4CCC5CC5(N)C4)cc3)c(=O)n2)CC1 (stereo not shown) [Compound 93] | ≥ 1 µM | > 32 µg/mL | < 8 µg/mL | – | < 8 µg/mL | < 8 µg/mL | < 0.5 µM | – | – | – | – | –
